# From PMC8698456, “Agrobacterium fabrum atu0526-Encoding Protein Is the Only Chemoreceptor That Regulates Chemoattraction toward the Broad Antibacterial Agent Formic Acid” (Biology, 2021)
# Experiments:
# Atu0526 [1] = molecular target: T1, Atu0526 (Agrobacterium fabrum, UniProt Q7D199); assay: isothermal titration calorimetry; thermo shift assay (Tm […] to […] °C); format: binding
# T1 construct: gene mclA; periplasmic domain (LBD, from 36th residue to 197th residue), His-tagged, pET30a
# Atu0526 [2] = molecular target: T2, Atu0526 (Agrobacterium fabrum, UniProt Q7D199, R115A); assay: isothermal titration calorimetry (no significant Tm shift in thermo shift assay); format: binding
# T2 construct: gene mclA; periplasmic domain (Atu0526 LBD R115A; LBD from 36th residue to 197th residue)
# T2 sequence (Q7D199 entry or part of it R115A): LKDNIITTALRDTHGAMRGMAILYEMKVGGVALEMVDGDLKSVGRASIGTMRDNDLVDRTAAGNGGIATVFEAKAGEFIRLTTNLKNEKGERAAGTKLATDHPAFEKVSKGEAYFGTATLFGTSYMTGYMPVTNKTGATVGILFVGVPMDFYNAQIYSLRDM
# T1 sequence (Q7D199 entry or part of it): as the sequence (Q7D199 entry or part of it R115A) above
structure (smiles),measurement,setting,value
O=CO [formic acid],Kd,Atu0526 [1],172 ± 53.6 µM
same,Kd,Atu0526 [2],22.9 ± 5.36 µM
